# According to patent US11807873B2, “Conversion of S-lignin compounds to useful intermediates” (Alliance for Sustainable Energy, LLC, priority 2020, dated 2023):
# T1: PcaHG (PCA 3,4-dioxygenase) (Pseudomonas putida, UniProt P00436+P00437)
# T1 construct: poly-histidine tag with TEV protease site (N, cleaved yes); made in house; host or cells: E. coli BL-21 λ(DE3)
# T1 sequence (P00437 1-239): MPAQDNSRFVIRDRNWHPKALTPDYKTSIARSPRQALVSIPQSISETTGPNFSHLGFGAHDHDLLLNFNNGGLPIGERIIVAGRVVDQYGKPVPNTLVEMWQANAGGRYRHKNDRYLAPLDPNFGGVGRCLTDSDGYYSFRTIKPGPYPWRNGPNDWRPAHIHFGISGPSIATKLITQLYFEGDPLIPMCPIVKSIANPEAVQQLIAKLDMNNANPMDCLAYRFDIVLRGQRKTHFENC
# T1 sequence (P00436 2-201 limits assumed): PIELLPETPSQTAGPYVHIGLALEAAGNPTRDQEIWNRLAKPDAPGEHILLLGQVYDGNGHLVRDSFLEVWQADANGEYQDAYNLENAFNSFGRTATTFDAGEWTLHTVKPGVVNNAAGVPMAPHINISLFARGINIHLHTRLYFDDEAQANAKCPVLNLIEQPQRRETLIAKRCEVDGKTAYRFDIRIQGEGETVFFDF
# How the values were obtained:
# [1] = target: T2, VanAB (vanillate O-demethylase) (Pseudomonas putida, UniProt Q88GI6); assay: VanAB steady-state kinetics, O2 consumption (oxygraph)
# Description: In evaluating the parameters for VA, 0.4 μM VanA was used to ensure steady-state conditions at low concentrations of VA.
# (§4) Steady-state kinetic analyses: Kinetic assays were performed by monitoring the consumption of O2 using a Clark-type polarographic O2 electrode OXYG1 (Hansatech) connected to a circulating water bath. Assays with the exception of GalA were performed in 1 mL of air-saturated 40 mM HEPES, 80 mM NaCl (I=0.1 M, pH 7.5) at 25° C. GalA assays were performed in 40 mM MOPS, 80 mM NaCl (I=0.1 M, pH 7.0) at 30° C. The electrode was calibrated daily according to the manufacturer's instructions using air-saturated buffer and water depleted of 02 via addition of sodium hydrosulfite. Stock solutions were prepared fresh daily. The background rate of O2-consumption was recorded prior to initiating the reaction and was subtracted from the measured reaction rate. Steady-state kinetic parameters were evaluated by fitting the Michaelis-Menten equation to the data using the least-squares fitting of LEONORA.
# For VanAB, the standard reaction contained 1 μM VanA, 2 μM Ht-VanB, and 400 μM NADH. […] Stock solutions of the substrates were made in dimethylsulfoxide (DMSO). The final concentration of DMSO in the assay solutions was <1% (v/v). For PcaHG, the standard reaction contained 250 μM PCA. The reaction was initiated by adding 0.1 μM PcaHG. […] The reaction was initiated by adding 0.05 μM GalA.
# [2] = target: T1, PcaHG (PCA 3,4-dioxygenase); assay: PcaHG steady-state kinetics, oxygraph and spectrophotometric assays; type: biochemical, P. putida KT2440
# Description: as §4
# (§5) Stock solutions of the substrates were made in dimethylsulfoxide (DMSO). The final concentration of DMSO in the assay solutions was <1% (v/v). […] The reaction was initiated by adding 0.1 μM PcaHG.
# [3] = target: GalA (gallate 3,4-dioxygenase) (Pseudomonas putida, UniProt Q88JX5); assay: GalA inactivation kinetic analyses during turnover; type: biochemical
# Text: (§1) GalA preparations had 0.5 equivalents of Fe per mol GalA. GalA cleaved GA with 3-fold higher specificity (˜9×10^5 s^−1 M^−1, see Table 3, FIG. 20) than previously reported. The partition ratio for GA was ˜1900 based on 02 consumption for given amount of GalA (see Table 3, Equation 1). […] Because high concentrations of GalA were needed to detect 3MGA-cleavage activity, cell lysates were used to investigate the inactivation of GalA by 3MGA. Importantly, the inactivation of GalA by GA was similar for the purified enzyme in E. coli lysate (j3^app˜3×10^−2 s^−1, Table 3, FIG. 21). The apparent rate constant of inactivation of GalA by 3MGA was less than 50% higher than for GA (see Table 3).
# Inactivation kinetic analyses: GalA inactivation assays were performed by monitoring consumption of 02 using OXYG1 as described in Steady-state kinetic analyses. […] To obtain soluble E. coli lysate containing GalA, 50 mL of culture was suspended in ˜900 μL of 50 mM HEPPS, pH 8.0, 100 mM NaCl. The resuspension was pipetted into a 1.5 mL screw cap tube containing ˜100 μL of 0.1 mm silica sand. Cell were lysed using a Bead Beater rotor (MP Biomedical). Cellular debris and sand were removed by centrifugation. The clarified was removed to a micro centrifuge tube and kept on ice until use.
# (§2) The amount of GalA added to the assay was such that the enzyme was completely inactivated before 10% of either the catecholic substrate or 02 was consumed in the reaction mixture. The partition ratio was calculated using Equation 1 shown above.
# (§3) The apparent apparent rate constant of inactivation during catalytic turnover in air-saturated buffer, j3^app, was determined by fitting Equation 2 to reaction progress curves where St is the substrate concentration at time t. st=(s0−s∞)e^−j^3^app^t+s∞ Equation 2
# [4] = target: T2, VanAB (vanillate O-demethylase); assay: VanAB coupling of O-demethylation to O2 consumption (HPLC-based assay); type: biochemical, P. putida KT2440; conditions: quenched after ~100 μM O2 consumed; for Coupling Substrate/O2: ratio of aromatic substrate consumed:O2 consumed; for Coupling Product/O2: ratio of product produced:O2 consumed
# Description: The ability of VanAB to catalyze the O-demethylation of VA, SA, and 3MGA was evaluated first. Using an HPLC-based assay, the enzyme transformed VA, SA, and 3MGA to PCA, 3MGA, and GA, respectively (see FIG. 14). When reactions were quenched after ˜100 μM of O2 was consumed, the amounts of substrate consumed, and product detected, were equal to the amount of O2 consumed within error (see Table 3). […] However, in the absence of VanA, VanB consumed NADH and O2 to produce H2O2 in the presence of SA. This adventitious consumption of NADH and O2 was not observed in the presence of VA or 3MGA. Further, in reactions containing 2 μM VanB, 1 μM VanA completely outcompeted the reaction of SA with VanB.
# HPLC characterization of transformation products and flavin content: Oxygenase turnover and VanB flavin content were evaluated using a Waters 2695 Separation HPLC module (Milford, MA) equipped with a Waters 2996 photodiode array detector. VanAB reactions contained ˜1 μM VanA, ˜1 μM VanB and 200 μM substrate in air-saturated HEPES (I=0.1 M, pH 7.5). Reactions were incubated for 30 min at 25° C., quenched with glacial acetic acid (final concentration 10% (v/v)), then centrifuged and filtered (0.2 μm) to remove protein. Substrates and products were resolved using a 250×4.6 mm Luna 5 m C18(2) column (Phenomenex, Torrance, CA) and a linear gradient of 0.1% formic acid and methanol. Compound amounts were assessed using integrated peak areas at 260 nm and standard curves for each compound.
# [5] = tested on: wild-type P. putida KT2440; assay: Toxicity effects on growth of wild-type strain (OD600); type: cell-based, Pseudomonas putida KT2440; conditions: M9 minimal media, 20 mM glucose
# Description: Error bars represent the absolute value of two biological replicates.
# Bacterial strains, media, and cultivations: Pseudomonas putida KT2440 (ATCC® 47054) was utilized as the wild-type and base strain for all further engineering. Gene deletion, insertion, or replacements in P. putida KT2440 were performed using the antibiotic/sacB counter-selection method as previously described. Diagnostic colony PCR was performed with MyTaq® HS Red Mix (Bioline, USA) to confirm gene deletion, insertion, or replacement (see Table 3 and Table 8). M9 minimal medium was prepared as 6.78 g/L Na2HPO4, 3 g/L KH2PO4, 0.5 g/L NaCl, 1 g/L NH4Cl, 2 mM MgSO4, 100 μM CaCl2), and 18 μM FeSO4, pH 7.0. […] Sodium formate (Sigma, USA) was used to prepare formate stocks in water. Stocks of syringaldehyde were made in 2% (v/v) DMSO. Glucose at 1 M concentration (Sigma, USA) was prepared in water. All carbon sources were 0.2 μm filtered prior to media addition. KT2440 strains were revived from glycerol stocks in LB medium overnight at 30° C. prior to washing in M9 minimal medium. Washed cells were inoculated to an OD600 of 0.1 in 25 mL of M9 minimal media supplemented with the specified carbon/energy source in 125 mL baffled flasks and incubated at 30° C., 225 rpm in biological duplicate or triplicate, as indicated. In the case of 3MGA, the culture volume was reduced to 10 mL in 50 mL baffled flasks due to the cost of this substrate. […] In the case of formate feeding, cultivations were subsequently pH adjusted to pH 7.1-7.3 with formic acid, which provided an additional 0.13-1.75 mmol of formate. To measure cell growth and quantify metabolites, cultures were sampled by removing 1 mL, measuring OD600 of a 1:10 or 1:100 dilution, centrifuging to pellet the cells, and blanking with the OD600 of the supernatant to account for darkening of some cultures due to oxidation of intermediates.
# In vivo reactions: Wild-type P. putida KT2440 and engineered strains were cultivated overnight in LB medium and centrifuged. […] Flasks were inoculated to an OD600 of 0.1 and incubated at 30° C., 225 rpm. Cultures were sampled periodically by removing 1 mL that was used to measure the OD600 as well as metabolite analysis (see below). Shake flask experiments were performed in triplicate. In the case of 3-MGA, the culture was downscaled to 10 mL in 50 mL baffled flasks and performed in duplicate.
# [6] = substrate: O=C(O)c1cc(O)c(O)c(O)c1; assay: PcaHG steady-state kinetics, oxygraph and spectrophotometric assays; type: biochemical, P. putida KT2440; conditions: other: air-saturated HEPES (I = 0.1M), pH 7.5, 25° C
# Description: as §4, §5
# [7] = substrate: COc1cc(C(=O)O)cc(O)c1O; assay: GalA inactivation kinetic analyses during turnover; type: biochemical; conditions: other: calculated from j3^app and partition ratio, MOPS (I = 0.1M, pH 7.0), 30° C
# Text: as §1
# Inactivation kinetic analyses: GalA inactivation assays were performed by monitoring consumption of 02 using OXYG1 as described in Steady-state kinetic analyses. […]
# as §2, §3
# [8] = substrate: O=C(O)c1cc(O)c(O)c(O)c1; assay: GalA steady-state kinetics, O2 consumption (oxygraph); type: biochemical, P. putida KT2440; conditions: other: air-saturated 40 mM MOPS, 80 mM NaCl (I = 0.1M, pH 7.0), 30° C
# Description: Steady-state kinetic analyses: Kinetic assays were performed by monitoring the consumption of O2 using a Clark-type polarographic O2 electrode OXYG1 (Hansatech) connected to a circulating water bath. […] GalA assays were performed in 40 mM MOPS, 80 mM NaCl (I=0.1 M, pH 7.0) at 30° C. The electrode was calibrated daily according to the manufacturer's instructions using air-saturated buffer and water depleted of 02 via addition of sodium hydrosulfite. Stock solutions were prepared fresh daily. The background rate of O2-consumption was recorded prior to initiating the reaction and was subtracted from the measured reaction rate. Steady-state kinetic parameters were evaluated by fitting the Michaelis-Menten equation to the data using the least-squares fitting of LEONORA.
# Stock solutions of the substrates were made in dimethylsulfoxide (DMSO). The final concentration of DMSO in the assay solutions was <1% (v/v). […] The reaction was initiated by adding 0.05 μM GalA.
# T2 sequence (Q88GI6 entry or part of it): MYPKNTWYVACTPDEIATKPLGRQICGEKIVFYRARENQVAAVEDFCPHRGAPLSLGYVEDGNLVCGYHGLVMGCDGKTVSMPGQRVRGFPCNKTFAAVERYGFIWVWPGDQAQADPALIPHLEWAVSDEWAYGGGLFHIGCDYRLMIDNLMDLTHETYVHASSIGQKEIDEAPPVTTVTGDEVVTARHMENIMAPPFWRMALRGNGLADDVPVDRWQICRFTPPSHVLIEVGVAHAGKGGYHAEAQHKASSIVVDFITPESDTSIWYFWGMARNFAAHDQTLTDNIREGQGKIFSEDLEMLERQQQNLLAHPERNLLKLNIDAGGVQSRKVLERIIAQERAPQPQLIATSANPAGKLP
# T2 sequence (Q88GI5 entry or part of it, further chain): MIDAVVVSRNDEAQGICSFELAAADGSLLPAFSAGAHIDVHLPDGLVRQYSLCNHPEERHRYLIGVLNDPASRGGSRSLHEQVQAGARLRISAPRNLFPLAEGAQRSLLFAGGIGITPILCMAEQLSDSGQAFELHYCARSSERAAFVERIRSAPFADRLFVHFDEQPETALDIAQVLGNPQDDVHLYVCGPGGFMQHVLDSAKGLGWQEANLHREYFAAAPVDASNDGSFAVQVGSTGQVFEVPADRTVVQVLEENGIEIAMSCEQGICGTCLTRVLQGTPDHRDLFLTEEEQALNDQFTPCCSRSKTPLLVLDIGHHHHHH
molecule,measurement,setting,value
"COc1cc(C(=O)O)cc(O)c1O [3MGA, 3-O-methylgallate]",apparent specificity of VanAB relative to that for VA,[1]; O-demethylation,~1%
same,cleavage by PcaHG,[2]; oxygraph and spectrophotometric assays,did not detectably cleave
same,"apparent rate constant of inactivation of GalA, higher than for GA",[3],less than 50%
same,kcat^app relative to that for GA,[3],~0.025%
same,partition ratio relative to that for GA,[3],0.2%
same,j3^app (apparent rate constant of inactivation during turnover),"[3]; air-saturated 40 mM MOPS, 80 mM NaCl (I = 0.1M, pH 7.0), 30° C",3.8 ± 0.3 ×10^−2 s^−1
same,Partition Ratio,[3]; calculated from the O2 consumption for a given amount of GalA,3.3 ± 0.6
same,Coupling Substrate/O2,[4],1.0 ± 0.1 mol:mol
same,Coupling Product/O2,[4],1.1 ± 0.2 mol:mol
"COc1cc(C(=O)O)cc(OC)c1O [SA, syringate]",toxicity to P. putida KT2440 compared with VA,[5],more toxic
same,growth at 120 mM substrate,[5],able to grow
"COc1cc(C(=O)O)ccc1O [VA, vanillate]",apparent specificity of VanAB,[1]; 0.4 μM VanA,~200000 s⁻¹ M⁻¹
same,Coupling Substrate/O2,[4],1.3 ± 0.2 mol:mol
same,Coupling Product/O2,[4],1.1 ± 0.1 mol:mol
same,growth at 120 mM substrate,[5],not
"COc1cc(C=O)cc(OC)c1O [SAL, syringaldehyde]",toxicity to P. putida KT2440 compared with VA,[5],more toxic
"O=C(O)c1ccc(O)c(O)c1 [PCA, protocatechuate]",specific activity of purified PcaHG,[2],3.8 U/mg
same,kcat^app,"[2]; air-saturated HEPES (I = 0.1M), pH 7.5, 25° C",0.95 ± 0.03 s⁻¹
same,Km,"[2]; air-saturated HEPES (I = 0.1M), pH 7.5, 25° C, read-out: KM^app",33 ± 2 µM
"PcaHG (PCA 3,4-dioxygenase) (Pseudomonas putida) (protein, poly-histidine tag with TEV protease site (N, cleaved yes); made in house; host or cells: E. coli BL-21 λ(DE3)) chain 1: MPAQDNSRFVIRDRNWHPKALTPDYKTSIARSPRQALVSIPQSISETTGPNFSHLGFGAHDHDLLLNFNNGGLPIGERIIVAGRVVDQYGKPVPNTLVEMWQANAGGRYRHKNDRYLAPLDPNFGGVGRCLTDSDGYYSFRTIKPGPYPWRNGPNDWRPAHIHFGISGPSIATKLITQLYFEGDPLIPMCPIVKSIANPEAVQQLIAKLDMNNANPMDCLAYRFDIVLRGQRKTHFENC chain 2: PIELLPETPSQTAGPYVHIGLALEAAGNPTRDQEIWNRLAKPDAPGEHILLLGQVYDGNGHLVRDSFLEVWQADANGEYQDAYNLENAFNSFGRTATTFDAGEWTLHTVKPGVVNNAAGVPMAPHINISLFARGINIHLHTRLYFDDEAQANAKCPVLNLIEQPQRRETLIAKRCEVDGKTAYRFDIRIQGEGETVFFDF",Km,[6],15 ± 2 µM
same,kcat,[6],0.0675 ± 0.0003 s⁻¹
same,kcat/Km,[6],0.51 ± 0.06 ×10^4 s^−1 · M^−1
"GalA (gallate 3,4-dioxygenase) (Pseudomonas putida KT2440) (protein) MARIIGGLAVSHTPTIGFAVDHDKQEEAAWAPIFESFEPIRTWLQQRQPDVLFYIFNDHITSFFFDHYSAFTLGVDEQYGVADEGGNPRDLPPVGGHAALSRHIGQSLMADEFDMSFFRDKPLDHGFFSPMSALLPCDESWPVQIVPLQVGVLQLPIPTARRCYKLGQALRRAIESYPEDLKVAIVATGGVSHQVHGERCGFNNPEWDAQFLDLLVNDPQRLTEMTLAEYATLGGMEGAEVITWLIMRGTLSANVERKHQSYYLPSMTGIATLLLENRDQALPAPVNERHRQHMQHQLAGAEQLEGTYPYTLERSAKGYRLNKFLHRMIEPQWRQRFLSEPEALYREAGLSEEESDLLRRRDWRGLIHYGVIFFVLEKLGAVLGVSNLDIYAAMRGQSIEDFMKTRNQQVRYSVAGKAPN",kcat,[7],0.012 ± 0.002^d s^−1
same,Km,[8],59 ± 5 µM
same,kcat,[8],52 ± 4 s⁻¹
same,kcat/Km,[8],90 ± 10 ×10^4 s^−1 · M^−1
